Assays:
Type in all cases: in vivo
[1] = tested on: Myzus persicae; assay: Myzus persicae test, Example D (sprayed to runoff, ammonium salt boosting)
Description: (§1) Solvent: 7 parts by weight dimethylformamide
(§2) Emulsifier: 2 parts by weight alkylaryl polyglycol ether
(§3) An appropriate preparation of active ingredient is prepared by mixing 1 part by weight of active ingredient with the stated amounts of solvent and emulsifier and diluting the concentrate with water to the desired concentration. For the application with ammonium salts or phosphonium salts, these salts are added in a concentration of 1000 ppm to the spray liquor.
Paprika plants (Capsicum annum) heavily infested by the green peach aphid (Myzus persicae) are treated by being. sprayed to runoff with the preparation of active ingredient at the desired concentration. After the desired time the destruction in % is ascertained. 100% means that all of the animals have been killed; 0% means that no animals have been killed.

[2] = tested on: Myzus persicae; assay: Myzus persicae test, Example F (sprayed to runoff, ammonium salt plus penetrant)
Description: as §1, §2
An appropriate preparation of active ingredient is prepared by mixing 1 part by weight of active ingredient with the stated amounts of solvent and emulsifier and diluting the concentrate with water to the desired concentration. For the application with ammonium salts or phosphonium salts and penetrant (rapeseed oil methyl ester 500 EW), they are each added in a concentration of 1000 ppm to the spray liquor.
After the desired time the destruction in % is ascertained. 100% means that all of the animals have been killed; 0% means that no animals have been killed.

[3] = tested on: Aphis gossypii; assay: Aphis gossypii test, Example G (sprayed to runoff, ammonium salt plus penetrant)
Description: as §1, §2
An appropriate preparation of active ingredient is prepared by mixing 1 part by weight of active ingredient with the stated amounts of solvent and emulsifier and diluting the concentrate with emulsifier-containing water to the desired concentration. For the application with ammonium salts or phosphonium salts and penetrants (rapeseed oil methyl esters 500 EW), they are each added in a concentration of 1000 ppm a.i. to the spray liquor.
(§4) Cotton plants (Gossypium hirsutum) heavily infested by the cotton aphid (Aphis gossypii) are sprayed to runoff with the preparation of active ingredient at the desired concentration.
(§5) After the desired time the destruction in % is ascertained. 100% means that all of the aphids have been killed; 0% means than no aphids were killed.

[4] = tested on: Aphis gossypii; assay: Aphis gossypii test, Example E (sprayed to runoff, ammonium salt boosting)
Description: as §1, §2
as §3, with “concentrate with emulsifier-containing water to” for “concentrate with water to”
as §4, §5

[5] = 4 ppm active ingredient, +AS (1000 ppm)
[6] = 4 ppm active ingredient, no additive
[7] = 20 ppm active ingredient, +AS (1000 ppm)
[8] = 20 ppm active ingredient, no additive
[9] = 0.8 ppm active ingredient, +AS (1000 ppm)
[10] = 0.8 ppm active ingredient, +RME (1000 ppm)
[11] = 0.8 ppm active ingredient, +RME +AS (each 1000 ppm)
[12] = 0.8 ppm active ingredient, no additive
[13] = 4 ppm active ingredient, +RME (1000 ppm)
[14] = 4 ppm active ingredient, +RME +AS (each 1000 ppm)

Row | Structure (SMILES) | Degree of destruction/% after 6 days [1, 5] [%] | Degree of destruction/% after 6 days [1, 6] [%] | Degree of destruction/% after 6 days [1, 7] [%] | Degree of destruction/% after 6 days [1, 8] [%] | Degree of destruction/% after 6 days [2, 9] [%] | Degree of destruction/% after 6 days [2, 10] [%] | Degree of destruction/% after 6 days [2, 11] [%] | Degree of destruction/% after 6 days [2, 12] [%] | Degree of destruction/% after 6 days [2, 5] [%] | Degree of destruction/% after 6 days [2, 13] [%] | Degree of destruction/% after 6 days [2, 14] [%] | Degree of destruction/% after 6 days [2, 6] [%] | Degree of destruction/% after 6 days [3, 9] [%] | Degree of destruction/% after 6 days [3, 10] [%] | Degree of destruction/% after 6 days [3, 11] [%] | Degree of destruction/% after 6 days [3, 12] [%] | Degree of destruction/% after 6 days [4, 9] [%] | Degree of destruction/% after 6 days [4, 12] [%] | Degree of destruction/% after 6 days [4, 5] [%] | Degree of destruction/% after 6 days [4, 6] [%] | other results
1 | Cc1cc(Cl)cc(C)c1C1=C(O)C2(CCC3(CC2)OCCO3)NC1=O [Example I-1-a-4] | 65 | 40 | 98 | 95 | 5 | 0 | 20 | 0 | 65 | 95 | 98 | 40 | 65 | 30 | 80 | 15 | 65 | 15 | 85 | 60 | –
2 | CO[C@H]1CC[C@]2(CC1)NC(=O)C(c1c(C)cc(I)cc1C)=C2O [Example I-1-a-7] | 80 | 40 | – | – | 10 | 35 | 75 | 0 | – | – | – | – | 45 | 50 | 75 | 35 | – | – | 90 | 55 | Degree of destruction/% after 6 days [3, 5]: 90%; Degree of destruction/% after 6 days [3, 13]: 85%; Degree of destruction/% after 6 days [3, 14]: 95%; Degree of destruction/% after 6 days [3, 6]: 55%; Degree of destruction/% after 6 days [4, 7]: 99%; Degree of destruction/% after 6 days [4, 8]: 85%
3 | Cc1cc(C)c(C2=C(O)C3(CCC(C)CC3)NC2=O)c(C)c1 (stereo not shown) [Example I-1-a-8] | – | – | – | – | 55 | 60 | 80 | 20 | – | – | – | – | 40 | 20 | 60 | 0 | 40 | 0 | – | – | Degree of destruction/% after 6 days [1, 9]: 55%; Degree of destruction/% after 6 days [1, 12]: 20%
4 | COC1CCC2(CC1)NC(=O)C(c1cc(C)ccc1Br)=C2O (stereo not shown) [Example I-1-a-11] | – | – | 70 | 0 | – | – | – | – | 5 | 55 | 99 | 0 | – | – | – | – | – | – | 35 | 5 | Degree of destruction/% after 6 days [3, 5]: 35%; Degree of destruction/% after 6 days [3, 13]: 45%; Degree of destruction/% after 6 days [3, 14]: 80%; Degree of destruction/% after 6 days [3, 6]: 5%; Degree of destruction/% after 6 days [4, 7]: 80%; Degree of destruction/% after 6 days [4, 8]: 45%
5 | COC1CCC2(CC1)NC(=O)C(c1c(Cl)cc(Cl)c(C)c1Cl)=C2O (stereo not shown) [Example I-1-a-12] | – | – | 65 | 55 | – | – | – | – | 5 | 0 | 50 | 0 | 45 | 45 | 65 | 5 | 45 | 5 | 95 | 65 | Degree of destruction/% after 6 days [2, 7]: 65%; Degree of destruction/% after 6 days ([2]; 20 ppm active ingredient, +RME (1000 ppm)): 70%; Degree of destruction/% after 6 days ([2]; 20 ppm active ingredient, +RME +AS (each 1000 ppm)): 98%; Degree of destruction/% after 6 days [2, 8]: 55%
